The record followed here is ChEMBL document CHEMBL1201862, “PubChem BioAssay data set” (2004).

Test systems include SK-OV-3; NCI-H460; SK-MEL-2; SW-620; HOP-62; HOP-92; UO-31; SN12C; EKVX; NCI-H226; U-251; HT-29; UACC-62; MOLT-4; CCRF-CEM; K562; COLO 205; NCI-H23; IGROV-1; SF-539.
Common to all, as to assay: NCI anticancer screen, dose series, 48 h

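48-hour exposure; five concentrations; linearly interpolated endpoints. GI50 is the concentration that inhibits growth by half.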 Calls of active or inactive are those of the source. Rule as the data show it: active = GI50 up to about 1.1 µM and inactive = higher.

`CCCCc1nccc2c(C)c3[nH]c4ccccc4c3cc12`: the GI50 is 5.81 µM (inactive) in the assay on SK-OV-3; 2.17 µM (inactive) in the assay on NCI-H460; 3.88 µM (inactive) in the assay with SK-MEL-2; 2.26 µM (inactive) in the assay with SW-620; 3.68 µM (inactive) in the assay with HOP-62; 3.74 µM (inactive) in the assay with HOP-92. Also, the GI50 with UO-31 is 1.86 µM (inactive); in the assay on SN12C, 6.98 µM (inactive); in the assay with EKVX, 4.48 µM (inactive); in the assay with NCI-H226, 7.57 µM (inactive); in the assay with U-251 it was 3.37 µM (inactive); in the assay with HT-29, 2.62 µM (inactive). For the same compound, the GI50 was 2.8 µM (inactive) in the assay with UACC-62; 1.98 µM (inactive) in the assay on MOLT-4; 2.85 µM (inactive) in the assay with CCRF-CEM; 1.95 µM (inactive) in the assay on K562; 0.92 µM (active) in the assay with COLO 205; 3.66 µM (inactive) in the assay on NCI-H23. Besides, the values for the GI50 in the assay with IGROV-1 and in the assay with SF-539 were 3.33 µM (inactive) and 2.45 µM (inactive), respectively.

Take `NCCCCNCCCNC(=O)c1nc(-c2csc(CCN)n2)sc1Cl`: the GI50 in the assay on SK-OV-3, with NCI-H460, in the assay with SK-MEL-2, in the assay on SW-620, in the assay with HOP-62 and with HOP-92 was > 100 µM (inactive) throughout. Moreover, the GI50 in the assay on UO-31, in the assay on SN12C, in the assay on EKVX, in the assay with NCI-H226, in the assay with U-251 and in the assay on HT-29 was > 100 µM (inactive) in each case. Besides, the GI50 was > 100 µM (inactive) with UACC-62; > 100 µM (inactive) in the assay on MOLT-4; > 100 µM (inactive) in the assay on CCRF-CEM; 49.5 µM (inactive) in the assay with K562; > 100 µM (inactive) with COLO 205; > 100 µM (inactive) in the assay with NCI-H23. The GI50 with IGROV-1 and in the assay with SF-539 was > 100 µM (inactive) each time.

As to `CC(C)OP(=O)(OC(C)C)C1=NN(c2ccc([N+](=O)[O-])cc2)C(P(=O)(OC(C)C)OC(C)C)=NN1c1ccc([N+](=O)[O-])cc1`, the GI50 is > 100 µM (inactive) in the assay with SK-OV-3; 29.2 µM (inactive) in the assay on NCI-H460; > 100 µM (inactive) in the assay on SK-MEL-2; > 100 µM (inactive) with SW-620; > 100 µM (inactive) in the assay on HOP-62; 7.62 µM (inactive) with HOP-92. Also, the GI50 is 95.7 µM (inactive) with UO-31; 44.7 µM (inactive) with SN12C; 8.91 µM (inactive) in the assay with EKVX; > 100 µM (inactive) with NCI-H226; 42.7 µM (inactive) with U-251; 44 µM (inactive) with HT-29. For the same compound, the GI50 with UACC-62 was > 100 µM (inactive); in the assay with MOLT-4, 5.19 µM (inactive); in the assay on CCRF-CEM it was 91.4 µM (inactive); with K562, 6.95 µM (inactive); in the assay on COLO 205, > 100 µM (inactive); in the assay with NCI-H23 it was > 100 µM (inactive). The GI50 in the assay with IGROV-1 was > 100 µM (inactive); with SF-539 it was 31 µM (inactive).

For `O=C1CCC[C@H]2O[C@@H](COC(=O)c3ccccc3)C[C@H]2O1`, the GI50 in the assay on SK-OV-3, in the assay with NCI-H460, with SK-MEL-2, in the assay with SW-620, in the assay on HOP-62 and in the assay on HOP-92 was > 100 µM (inactive) each time. Moreover, the GI50 in the assay with UO-31, in the assay on SN12C, with EKVX, in the assay with NCI-H226, in the assay with U-251 and with HT-29 was > 100 µM (inactive) in each case. Moreover, the GI50 with UACC-62, in the assay on MOLT-4, with CCRF-CEM, with K562, with COLO 205 and in the assay with NCI-H23 was > 100 µM (inactive) throughout. For the same compound, the GI50 in the assay on IGROV-1 and in the assay on SF-539 was > 100 µM (inactive) throughout.

As for `C=C(C[C@@H](O)[C@H](C)NC(=O)OCc1ccccc1)C(=O)OC(C)(C)C`, the GI50 with SK-OV-3 was > 100 µM (inactive); in the assay on NCI-H460, > 100 µM (inactive); in the assay on SK-MEL-2, > 100 µM (inactive); in the assay with SW-620 it was 39.7 µM (inactive); with HOP-62, > 100 µM (inactive); with HOP-92, > 100 µM (inactive). Besides, the GI50 is > 100 µM (inactive) in the assay on UO-31; > 100 µM (inactive) with SN12C; 76.6 µM (inactive) in the assay on EKVX; > 100 µM (inactive) in the assay on NCI-H226; > 100 µM (inactive) with U-251; > 100 µM (inactive) in the assay on HT-29. The GI50 in the assay with UACC-62 was 51.2 µM (inactive); in the assay with MOLT-4, 46.2 µM (inactive); in the assay on CCRF-CEM it was 17.3 µM (inactive); in the assay on K562, 35.9 µM (inactive); in the assay on COLO 205, > 100 µM (inactive); with NCI-H23, 45.6 µM (inactive). The figures for the GI50 with IGROV-1 and in the assay with SF-539 were > 100 µM (inactive) and 50 µM (inactive), respectively.

As to `O=S1(=O)C(=C(c2ccccc2)c2ccccc2)S(=O)(=O)c2ccccc21`, the GI50 in the assay with SK-OV-3 was > 56.5 µM (inactive); in the assay on NCI-H460, > 100 µM (inactive); in the assay with SK-MEL-2 it was > 100 µM (inactive); in the assay with SW-620, > 100 µM (inactive); in the assay with HOP-62, 23.2 µM (inactive); in the assay with HOP-92, 20.6 µM (inactive). Besides, the GI50 with UO-31 was > 100 µM (inactive); with SN12C, > 100 µM (inactive); in the assay on EKVX it was > 100 µM (inactive); with NCI-H226 it was > 60.3 µM (inactive); in the assay on U-251, 51.6 µM (inactive); in the assay with HT-29 it was > 100 µM (inactive). Moreover, the GI50 in the assay on UACC-62 is > 72.1 µM (inactive); with MOLT-4, > 100 µM (inactive); in the assay with CCRF-CEM, > 100 µM (inactive); in the assay on K562, > 100 µM (inactive); in the assay on COLO 205, > 100 µM (inactive); in the assay with NCI-H23, > 63.2 µM (inactive). Also, the figures for the GI50 in the assay with IGROV-1 and with SF-539 were > 95.5 µM (inactive) and 27.5 µM (inactive), respectively.

Consider `O=C(NCCN(CCNC(=O)c1cccc(=O)n1O)CCNC(=O)c1cccc(=O)n1O)c1cccc(=O)n1O`, for which the GI50 in the assay with SK-OV-3, in the assay with NCI-H460, in the assay with SK-MEL-2, with SW-620, with HOP-62 and in the assay on HOP-92 was > 100 µM (inactive) each time. Moreover, the GI50 in the assay on UO-31, in the assay on SN12C, in the assay with NCI-H226, with U-251, with HT-29 and with UACC-62 was > 100 µM (inactive) in each case. The GI50 in the assay with CCRF-CEM, in the assay with K562, in the assay with COLO 205, in the assay on NCI-H23, in the assay with IGROV-1 and with SF-539 was > 100 µM (inactive) throughout.

Turning to `Cc1ccc(S(=O)(=O)Oc2cc(-c3ccccc3)nc3ccccc23)cc1`, the GI50 with SK-OV-3 was 2.23 µM (inactive); with NCI-H460, 1.81 µM (inactive); in the assay with SK-MEL-2, 1.98 µM (inactive); in the assay on SW-620 it was 1.22 µM (inactive); in the assay on HOP-62, 3.73 µM (inactive); with HOP-92 it was 3.83 µM (inactive). Also, the GI50 is 6.3 µM (inactive) with UO-31; 5.93 µM (inactive) in the assay with SN12C; 19.4 µM (inactive) in the assay on EKVX; 6.4 µM (inactive) in the assay on NCI-H226; 2.51 µM (inactive) in the assay on U-251; 1.93 µM (inactive) with HT-29. The GI50 is 3.01 µM (inactive) with UACC-62; 3.63 µM (inactive) in the assay with MOLT-4; 2.89 µM (inactive) in the assay with CCRF-CEM; 0.869 µM (active) in the assay on K562; 0.544 µM (active) in the assay on COLO 205; 2.53 µM (inactive) with NCI-H23. The GI50 is 3.85 µM (inactive) in the assay with IGROV-1 and 2.08 µM (inactive) with SF-539.

Take `COC1C(=O)CCC2(CO2)C1(O)C1(C)OC1CC=C(C)C` (centres undefined): the GI50 with SK-OV-3 was 51.6 µM (inactive); in the assay with NCI-H460, 27.3 µM (inactive); in the assay on SK-MEL-2 it was 27.6 µM (inactive); in the assay with SW-620, 18.4 µM (inactive); in the assay with HOP-62, 14.7 µM (inactive); with HOP-92 it was 25.8 µM (inactive). Moreover, the GI50 was 28.4 µM (inactive) in the assay with UO-31; > 100 µM (inactive) with SN12C; 93.5 µM (inactive) with EKVX; 13.9 µM (inactive) in the assay with U-251; 23.1 µM (inactive) in the assay with HT-29; 13.7 µM (inactive) in the assay with UACC-62. Further, the GI50 with MOLT-4 is 25.1 µM (inactive); in the assay with K562, 16.9 µM (inactive); with COLO 205 it was 16.6 µM (inactive); in the assay with NCI-H23 it was 46.7 µM (inactive); with IGROV-1, 16.9 µM (inactive).

Take `Cc1ccc(C(=O)N/N=C(\N=N\c2ccccc2)c2ccc(N(CCC#N)CCC#N)cc2C)cc1`: the GI50 is 74 µM (inactive) in the assay with SK-OV-3; > 100 µM (inactive) in the assay on NCI-H460; 69.8 µM (inactive) in the assay on SK-MEL-2; > 100 µM (inactive) with SW-620; 23.1 µM (inactive) in the assay on HOP-62; > 100 µM (inactive) in the assay on HOP-92. In addition, the GI50 is > 100 µM (inactive) with UO-31; 74.6 µM (inactive) in the assay with EKVX; 54.8 µM (inactive) with NCI-H226; 92.5 µM (inactive) with U-251; 35.1 µM (inactive) in the assay on HT-29; 38.8 µM (inactive) in the assay on UACC-62. For the same compound, the GI50 in the assay on MOLT-4 was > 100 µM (inactive); with CCRF-CEM, > 100 µM (inactive); in the assay on K562 it was > 100 µM (inactive); in the assay on COLO 205, > 100 µM (inactive); with NCI-H23 it was 85.7 µM (inactive); in the assay on IGROV-1, > 100 µM (inactive). Moreover, the GI50 in the assay on SF-539 is 18.3 µM (inactive).
